For 13 compounds, inhibition and IC50 results are on record in ChEMBL document CHEMBL1156997, “4,7-Dichloro benzothien-2-yl sulfonylaminomethyl boronic acid: first boronic acid-derived beta-lactamase inhibitor with class A, C, and D activity” (Bioorg Med Chem Lett, 2010).

The target of assay [1] is Beta-lactamase (Pseudomonas aeruginosa (strain ATCC 15692 / PAO1 / 1C / PRS 101 / LMG12228)) (UniProt P24735). In words: Inhibition of Pseudomonas aeruginosa beta-lactamase AmpC at 2 uM.
In the next assay the target is Beta-lactamase SHV-5 (Klebsiella pneumoniae, UniProt P0A3M1). Nature of the assay: Inhibition of Klebsiella pneumoniae beta-lactamase SHV5.
Assay [2] can be described thus: Inhibition of Pseudomonas aeruginosa beta-lactamase TEM-1.
Assay [3] concerns the target Beta-lactamase (Pseudomonas aeruginosa (strain ATCC 15692 / PAO1 / 1C / PRS 101 / LMG12228), UniProt P24735). Nature of the assay: Inhibition of Pseudomonas aeruginosa beta-lactamase AmpC.
Assay [4] has as its target Beta-lactamase (Enterobacter cloacae, UniProt P05364). In words: Inhibition of Enterobacter colacae P99 Beta-lactamase.
Assay [5] deals with Beta-lactamase (Acinetobacter baumannii, UniProt Q8RLA6). Nature of the assay: Inhibition of Acinetobacter baumannii beta-lactamase OXA40.
The target of assay [6] is Beta-lactamase (Pseudomonas aeruginosa (strain ATCC 15692 / PAO1 / 1C / PRS 101 / LMG12228)) (UniProt P24735). In words: Inhibition of Pseudomonas aeruginosa beta-lactamase AmpC at 0.8 uM.

Each structure is given as a SMILES string. pIC50: −log10 of the molar value.

Chain of Beta-lactamase (Pseudomonas aeruginosa (strain ATCC 15692 / PAO1 / 1C / PRS 101 / LMG12228)) (P24735 27-397 limits assumed): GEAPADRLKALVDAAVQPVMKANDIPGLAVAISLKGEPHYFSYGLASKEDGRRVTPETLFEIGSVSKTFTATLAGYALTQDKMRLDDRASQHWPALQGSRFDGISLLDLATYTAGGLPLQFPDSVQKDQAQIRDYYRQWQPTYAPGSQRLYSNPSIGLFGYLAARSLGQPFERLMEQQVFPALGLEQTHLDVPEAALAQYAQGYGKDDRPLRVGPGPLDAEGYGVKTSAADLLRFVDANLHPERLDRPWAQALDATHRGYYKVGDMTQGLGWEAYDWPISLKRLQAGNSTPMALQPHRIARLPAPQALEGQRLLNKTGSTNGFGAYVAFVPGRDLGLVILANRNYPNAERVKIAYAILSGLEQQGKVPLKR
Chain of Beta-lactamase SHV-5 (P0A3M1 whole entry): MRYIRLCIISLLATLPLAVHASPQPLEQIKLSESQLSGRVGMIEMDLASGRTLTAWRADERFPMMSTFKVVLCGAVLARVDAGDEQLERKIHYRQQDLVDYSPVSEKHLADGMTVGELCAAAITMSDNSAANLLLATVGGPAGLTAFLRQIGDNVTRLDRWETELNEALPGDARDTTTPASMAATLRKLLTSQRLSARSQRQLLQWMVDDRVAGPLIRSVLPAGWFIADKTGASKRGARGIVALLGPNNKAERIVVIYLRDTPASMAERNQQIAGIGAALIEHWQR
Chain of Beta-lactamase (Enterobacter cloacae, UniProt P05364) (P05364 whole entry): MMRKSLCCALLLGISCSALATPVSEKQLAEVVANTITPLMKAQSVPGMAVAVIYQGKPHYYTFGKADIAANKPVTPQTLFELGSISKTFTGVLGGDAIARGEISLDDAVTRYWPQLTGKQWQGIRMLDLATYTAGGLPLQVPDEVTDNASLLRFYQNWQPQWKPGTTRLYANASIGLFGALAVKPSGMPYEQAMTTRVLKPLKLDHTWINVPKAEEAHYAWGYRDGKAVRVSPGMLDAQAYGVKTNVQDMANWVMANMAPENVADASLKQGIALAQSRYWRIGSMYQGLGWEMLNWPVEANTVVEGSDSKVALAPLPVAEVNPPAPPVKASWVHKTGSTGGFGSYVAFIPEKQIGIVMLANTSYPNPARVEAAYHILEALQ
Chain of Beta-lactamase (Pseudomonas aeruginosa (strain ATCC 15692 / PAO1 / 1C / PRS 101 / LMG12228), UniProt P24735) (P24735 whole entry): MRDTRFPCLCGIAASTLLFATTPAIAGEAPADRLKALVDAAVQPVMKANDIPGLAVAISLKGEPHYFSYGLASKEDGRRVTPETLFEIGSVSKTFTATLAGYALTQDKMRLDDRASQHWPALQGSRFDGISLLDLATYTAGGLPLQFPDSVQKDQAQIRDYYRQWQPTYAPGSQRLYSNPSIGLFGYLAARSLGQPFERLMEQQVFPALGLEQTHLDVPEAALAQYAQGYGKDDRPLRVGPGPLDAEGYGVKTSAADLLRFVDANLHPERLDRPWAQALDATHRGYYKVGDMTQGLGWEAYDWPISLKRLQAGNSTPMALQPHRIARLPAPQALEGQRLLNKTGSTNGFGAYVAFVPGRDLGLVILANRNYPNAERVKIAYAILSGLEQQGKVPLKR
Chain of Beta-lactamase (Acinetobacter baumannii, UniProt Q8RLA6) (Q8RLA6 whole entry): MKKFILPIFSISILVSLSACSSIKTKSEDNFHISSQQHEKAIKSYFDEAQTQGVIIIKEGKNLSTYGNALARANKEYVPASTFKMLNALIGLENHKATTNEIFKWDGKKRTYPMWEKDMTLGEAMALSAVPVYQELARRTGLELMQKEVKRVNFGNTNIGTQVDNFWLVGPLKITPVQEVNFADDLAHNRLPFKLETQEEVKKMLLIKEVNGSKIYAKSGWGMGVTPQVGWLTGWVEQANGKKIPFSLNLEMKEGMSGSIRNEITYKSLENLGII

For `O=C(CC(=O)C(F)(F)F)c1ccco1`, the inhibition (usually the relative decrease from the control value, in per cent) in assay [1] amounted to 14%.
As to `O=C(CC(=O)C(F)(F)F)c1cccnc1`, the inhibition in assay [1] amounted to 19%.
Still for that read-out and setting: in the case of `CN(CC(=O)O)S(=O)(=O)c1ccc(N)cc1` it was -10%; in that of `N#Cc1cc(Br)cc(S(=O)(=O)NCC(=O)O)c1`, 4%.
Take `O=C(O)C1CCN1S(=O)(=O)c1cc(Cl)cc(Cl)c1` (configuration not stated): the inhibition in assay [1] amounted to 9%.
As to `O=S(=O)(NCB(O)O)c1cc2c(Cl)ccc(Cl)c2s1`, the pIC50 (commonly the negative decadic logarithm of the IC50, by convention in mol/L) against Beta-lactamase SHV-5 was 6.24; in assay [2], 5.96; at Beta-lactamase [3] it was 5.92; at Beta-lactamase [4], 6.21; against Beta-lactamase [5], 5.25.
As to `O=C(O)CNS(=O)(=O)c1ccc(CCCCC2CCNCC2)cc1`, in assay [1], the inhibition stood at 18%.
Still for that read-out and setting: in the case of `O=C(O)C1CCN1S(=O)(=O)c1cccnc1` (configuration not stated) it was 5%; in that of `O=C(O)C1CCCN1S(=O)(=O)c1ccccc1` (configuration not stated), 18%.
Same read-out and setting: in the case of `O=C(CC(=O)C(F)(F)F)c1ccccc1` it was 18%.
In the case of `O=S(=O)(NCB(O)O)c1ccccc1`, the inhibition in assay [6] came out at 29%.
As for `CC(C(=O)c1ccccc1)C(=O)C(F)(F)F` (configuration not stated), the inhibition in assay [1] is 11%.
On the same count and under the same terms, in the case of `CC(C(=O)c1cccs1)C(=O)C(F)(F)F` (configuration not stated) it was 11%.
